Measured values reported in ChEMBL document CHEMBL1201862, “PubChem BioAssay data set” (2004).
Where a name gives a salt, the structure may show the parent alone.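 Tested at 5 concentrations; 48 h exposure; 96-well plates; endpoints linearly interpolated, else capped at highest concentration. At the GI50, growth is halved.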 Activity calls are given as the source filed them. No stated cut-off is given here; in the data, active = GI50 up to about 1.1 µM and inactive = higher.

How the values were obtained:
Assay in all cases: inhibition of tumour cell growth, NCI panel, 48 h
[1] = system: Hs-578T
[2] = system: MDA-MB-231
[3] = system: MDA-N
[4] = system: BT-549
[5] = system: DMS-273
[6] = system: KM-20L2
[7] = system: SNB-78

Row | Compound | GI50 [1] | GI50 [2] | GI50 [3] | GI50 [4] | GI50 [5] | GI50 [6] | GI50 [7]
1 | COc1ccc(C2C3=C(COC3=O)Oc3cc4c(cc32)OCO4)cc1OC (configuration not stated) | 0.408 µM (active) | 3.4 µM (inactive) | 0.135 µM (active) |  |  |  | 
2 | CCOP1(=O)C=C(Sc2ccc([N+](=O)[O-])cc2[N+](=O)[O-])C(C)(C)O1 (configuration not stated) | 26.7 µM (inactive) |  | 5.07 µM (inactive) | 17.5 µM (inactive) |  |  | 
3 | COC(=O)c1sc2nc(Nc3ccccc3)/c(=N\c3ccccc3)sc2c1C | 27.7 µM (inactive) | > 100 µM (inactive) | 66.8 µM (inactive) |  |  |  | 
4 | COC(=O)C(=O)C1(CCC(C)=O)c2ccccc2-c2ccccc21 |  |  |  |  | 43.6 µM (inactive) | > 100 µM (inactive) | 
5 | COc1cccc2c(Nc3ccc(S(=O)(=O)NC(C)=O)cc3)c3ccc([N+](=O)[O-])cc3nc12 | 32.3 µM (inactive) | 21.2 µM (inactive) | 36.6 µM (inactive) | 26.3 µM (inactive) |  |  | 
6 | N#Cc1c(-c2ccc(Cl)cc2)cc(-c2ccc(Nc3ccnc4cc(Cl)ccc34)cc2)[nH]c1=O | 16.5 µM (inactive) | 34.4 µM (inactive) | > 100 µM (inactive) | 19.6 µM (inactive) |  |  | 
7 | COc1ccc2[nH]c3c(C)c4ccnc(NCCCN(C)CCCN)c4c(C)c3c2c1 | 0.0364 µM (active) | 0.0873 µM (active) | 0.214 µM (active) | 1.76 µM (inactive) |  |  | 
8 | C=C(Cl)C(Cl)(CBr)CCC(Cl)C(C)(C)Cl (configuration not stated) | 0.0237 µM (active) | 2.16 µM (inactive) | 1.81 µM (inactive) | 5.47 µM (inactive) |  |  | 
9 | CC(C)=CCc1c(O)c(CC=C(C)C)c2oc3c(c(=O)c2c1O)C(C=C(C)C)Oc1cc(O)ccc1-3 (configuration not stated) | 12 µM (inactive) | 12.4 µM (inactive) | 3.32 µM (inactive) | 12.2 µM (inactive) |  |  | 
10 | O=C(O)CCSC(=O)Nc1ccccc1 |  |  |  |  | > 100 µM (inactive) | > 100 µM (inactive) | > 100 µM (inactive)
11 | COc1cccc(NC(=O)CC(=O)N2N=C(N(CCC#N)c3ccc(Cl)cc3)CC2c2ccccc2)c1 (configuration not stated) |  |  |  |  | > 100 µM (inactive) | > 100 µM (inactive) | > 100 µM (inactive)
12 | Oc1cc(Br)cc2cc(Br)cnc12 | 3.24 µM (inactive) | 12.2 µM (inactive) | 5.37 µM (inactive) | 4.58 µM (inactive) |  |  | 
13 | CCc1cccc(CC)c1NC(=O)C(=O)Cc1nc2ccccc2o1 |  |  |  |  |  | > 100 µM (inactive) | > 100 µM (inactive)
14 | CC(=O)/N=C1/N(/C=C2\C(=O)Oc3ccccc3C2=O)C(=O)/C(=C/c2ccc(Cl)cc2Cl)N1C | 0.991 µM (active) | > 100 µM (inactive) |  | 11.5 µM (inactive) |  |  | 
15 | CCOP(=O)(OCC)/C(F)=C/c1ccc(F)cc1 | > 100 µM (inactive) | > 100 µM (inactive) | > 100 µM (inactive) | > 100 µM (inactive) |  |  | 
16 | C[n+]1c2ccccc2c(CNc2ccc(S(=O)(=O)N=C(N)N)cc2)c2ccccc21 |  |  |  |  | 2.94 µM (inactive) | 13.6 µM (inactive) | 19.9 µM (inactive)
17 | O=C(N/N=C\c1ccc(Cl)cc1)Nc1ccc2ccccc2c1 | 26.9 µM (inactive) | 41.9 µM (inactive) | 86.7 µM (inactive) | 56.6 µM (inactive) |  |  | 
18 | CCOC(=O)C(CC#Cc1ccc(C#CCC(NC(C)=O)C(=O)OCC)cc1)NC(C)=O (configuration not stated) | > 100 µM (inactive) | > 100 µM (inactive) | > 100 µM (inactive) |  |  |  | 
19 | CC(=O)O[C@H]1[C@@H](OC2CCCC2(c2ccccc2)c2ccccc2)O[N+]([O-])=C[C@@]12COCc1cc3c(cc12)OCO3 (some centres not stated) | 2.65 µM (inactive) | 6.12 µM (inactive) |  | 23 µM (inactive) |  |  | 
20 | O=C(c1ccccc1)c1ccc2nc3n(c2c1)C(c1c(F)cccc1F)SC3 (configuration not stated) | 8.55 µM (inactive) | 12.9 µM (inactive) | 1.34 µM (inactive) | 17.3 µM (inactive) |  |  | 
21 | CCCCCC/C=C\CCCCCCCCC(=O)c1cccc(OC)c1OC | 65.2 µM (inactive) | > 100 µM (inactive) | 91.8 µM (inactive) | > 100 µM (inactive) |  |  | 
22 | CC1CN1c1c(C(=O)/C=C/c2ccccc2)c(-c2ccccc2)nn(C)c1=O (configuration not stated) |  |  |  |  | 16.7 µM (inactive) | 19.1 µM (inactive) | 18.2 µM (inactive)
23 | CC(=O)O/C(=C(/C#N)C(=O)O)C1C(C(=O)O)C(c2ccccc2[N+](=O)[O-])C=C(c2ccco2)N1c1ccncc1 (configuration not stated) | 8.93 µM (inactive) | 4.78 µM (inactive) | 2.81 µM (inactive) | 6.04 µM (inactive) |  |  | 
24 | COc1ccc(CNc2nc(NC3CCCCC3)nc(NC3CCCCC3)n2)cc1 | 7.29 µM (inactive) | 3.44 µM (inactive) |  | 8.53 µM (inactive) |  |  | 
25 | Cc1ccc(O)c(C(c2cc(C)ccc2O)c2cc([N+](=O)[O-])ccc2O)c1 | 7.71 µM (inactive) | 0.0604 µM (active) |  |  |  |  | 
26 | COc1ccc2c3ccc4c(c3n(C)c2c1)C(=O)c1ccccc1C4=O |  |  |  |  | > 100 µM (inactive) | 39.8 µM (inactive) | > 100 µM (inactive)
27 | CC(C)(C)OC(=O)NCCCCCCC(=O)Cc1ccccc1 |  | > 100 µM (inactive) | > 100 µM (inactive) | > 100 µM (inactive) |  |  | 
28 | COc1cccc(/C=N/NC(=O)CSCC(=O)N/N=C/c2cccc(OC)c2OC)c1OC | 37.7 µM (inactive) | > 100 µM (inactive) |  |  |  |  | 

Row | Compound | GI50 [1] | GI50 [2] | GI50 [3] | GI50 [4] | GI50 [5] | GI50 [6] | GI50 [7]
29 | C/C(=N\NC(=S)NCc1ccccc1)c1nc2cccnc2[nH]1 | 18.3 µM (inactive) | 17.3 µM (inactive) | 11.3 µM (inactive) | 6.12 µM (inactive) |  |  | 
30 | CC(=O)OC1COC(n2nc(/C=C/c3ccc(Cl)cc3)c(=O)n(/N=C/c3ccccc3)c2=S)C(OC(C)=O)C1OC(C)=O (configuration not stated) | > 100 µM (inactive) | > 100 µM (inactive) | > 100 µM (inactive) | > 100 µM (inactive) |  |  | 
31 | O=C(c1ccccc1)N1CCC(Nc2nccs2)O1 (configuration not stated) | > 10 µM (inactive) | > 10 µM (inactive) |  | > 10 µM (inactive) |  |  | 
32 | CC(=O)OCC12C(OC(C)=O)C[C@@H](C)C3(CC(c4ccoc4)OC3=O)C1CCC(OC(C)=O)C21CO1 (some centres not stated) | > 100 µM (inactive) | > 100 µM (inactive) | > 100 µM (inactive) | > 100 µM (inactive) |  |  | 
33 | Cc1ccc(O)c(Cc2nc3ccccc3nc2-c2cccc(Cl)c2)c1 | 30.6 µM (inactive) | 46.3 µM (inactive) | 29.5 µM (inactive) | > 100 µM (inactive) |  |  | 
34 | CN1[C@@H]2CCCC[C@H]2N(C)P1(=O)C(O)/C=C/c1ccccc1 (some centres not stated) | > 100 µM (inactive) | > 100 µM (inactive) | > 100 µM (inactive) | > 100 µM (inactive) |  |  | 
35 | O=C1CNC(=O)/C(=C/c2c[nH]c3ccccc23)N1 | > 100 µM (inactive) |  | > 100 µM (inactive) | > 100 µM (inactive) |  |  | 
36 | Cc1cccc2nc3cccc(C(=O)NCCC[N+](C)(CCCNC(=O)c4cccc5nc6cccc(C)c6nc45)Cc4ccc([N+](=O)[O-])n4C)c3nc12 | 18.5 µM (inactive) | 17.5 µM (inactive) | 6.08 µM (inactive) | > 100 µM (inactive) |  |  | 
37 | COc1cc(/C=C(\C#N)C(=O)c2ccccc2)cc(OC)c1OC |  |  |  |  | > 100 µM (inactive) | > 100 µM (inactive) | > 100 µM (inactive)
38 | COC(=O)CN1C(=O)C2(C(=O)OC)OC1(c1ccc([N+](=O)[O-])cc1)C1C(=O)N(c3ccccc3)C(=O)C12 (configuration not stated) | > 100 µM (inactive) | > 100 µM (inactive) | > 100 µM (inactive) | > 100 µM (inactive) |  |  | 
39 | N=C(N)NCCCC(NC(=O)OCCCCn1ccc(N)nc1=O)C(=O)O (configuration not stated) | > 100 µM (inactive) | > 100 µM (inactive) | > 100 µM (inactive) | > 100 µM (inactive) |  |  | 
40 | COc1ccc(/N=C(/C[S+]([O-])c2ccc(C)cc2)C(F)(F)F)cc1 (configuration not stated) |  | > 100 µM (inactive) | > 100 µM (inactive) | > 100 µM (inactive) |  |  | 
41 | CCN1CCC(O)(c2ccc(Oc3ccc(F)cc3)cc2)C(C(=O)c2ccc(Oc3ccc(F)cc3)cc2)C1 (configuration not stated) | 17.2 µM (inactive) | 13.2 µM (inactive) | 16.9 µM (inactive) | 15.7 µM (inactive) |  |  | 
42 | CC1=NN(c2nc(N)nc(CSc3nc4n(c(=S)n3)CCN4)n2)C(C)(C)C1 | 15.6 µM (inactive) | 29.6 µM (inactive) |  | > 100 µM (inactive) |  |  | 
43 | O=c1c2cccnc2n2n1Cc1ccccc1C2 | > 100 µM (inactive) | > 100 µM (inactive) | > 100 µM (inactive) | > 100 µM (inactive) |  |  | 
44 | CCN(CC)CCCNc1ccc([N+](=O)[O-])c2nc3ccccc3c(N)c12 | 0.257 µM (active) | 0.442 µM (active) | 0.492 µM (active) | 1.4 µM (inactive) |  |  | 
45 | N#CC(NC12CC3CC(CC(C3)C1)C2)c1ccccc1 (configuration not stated) | > 100 µM (inactive) | > 100 µM (inactive) | > 100 µM (inactive) | > 100 µM (inactive) |  |  | 
46 | CN1CCN(c2ncc3c(n2)sc2c(=O)n(-c4ccccc4)cnc23)CC1 | > 100 µM (inactive) | > 100 µM (inactive) | > 100 µM (inactive) | > 100 µM (inactive) |  |  | 
47 | CC(C)=CC(=O)O[C@@H]1CC(C)(C)CC2C3=CCC4[C@]56CC[C@](O)(OC5)C(C)(C)C6CC[C@@]4(C)C3(C)CC[C@]21C(=O)O (some centres not stated) | > 100 µM (inactive) | > 100 µM (inactive) | > 100 µM (inactive) | > 100 µM (inactive) |  |  | 
48 | C=CCN1CCN([C@H](c2ccc(C(=O)N(CC)CC)cc2)c2cccc(OC)c2)CC1 | > 25 µM (inactive) | > 25 µM (inactive) | > 25 µM (inactive) | > 25 µM (inactive) |  |  | 
49 | COC1=CC(C)C2C[C@H]3O[C@H](O)C[C@H]4C(C)C(=O)C(O)C([C@@]2(C)C1=O)[C@@]34C (some centres not stated) |  |  |  |  | > 100 µM (inactive) |  | > 100 µM (inactive)
50 | Nc1ccn(C=C=CCO)c(=O)n1 | > 100 µM (inactive) | > 100 µM (inactive) | > 100 µM (inactive) | > 100 µM (inactive) |  |  | 
51 | O=C1c2ccc3c4ccc5c6c(ccc(c7ccc(c2c37)C(=O)N1CCN1CCCCC1)c64)C(=O)N(CCN1CCCCC1)C5=O | > 100 µM (inactive) |  | > 100 µM (inactive) | > 100 µM (inactive) |  |  | 
52 | c1cc2c(cc1NC1=NCCO1)CCC2 | 1.03 µM (active) |  | 3.24 µM (inactive) |  |  |  | 
53 | COc1cc(-c2oc3c(OC)c(O)c(OC)c(O)c3c(=O)c2OC)cc(OC)c1OC | 14.3 µM (inactive) | 73.6 µM (inactive) | 61.8 µM (inactive) | 71.8 µM (inactive) |  |  | 
54 | CC(=O)Oc1ccccc1C(=O)O [ASPIRIN] |  |  | > 100 µM (inactive) | > 100 µM (inactive) |  |  | 
55 | CCc1ccc2c(c1)N(CC(C)CN(C)C)c1ccccc1S2 (configuration not stated) [ETYMEMAZINE HYDROCHLORIDE] | 6.01 µM (inactive) | 4.89 µM (inactive) | 5.5 µM (inactive) | 12.9 µM (inactive) |  |  | 
